tested on: Nicotiana benthamiana; experiment: Test Example 5: growth promotion under low-temperature stress by hydroponics of Nicotiana benthamiana (1 ppm); assay type: in vivo; details: compound at 1 ppm, 7 days at 1.5±1.0° C. low-temperature stress, then 3 days at 22° C., 5 or greater = growth promotion effect, read-out: value of a relative leaf area (Equation (1), area of green leaf)
Procedure: Test Example 5. Test for Evaluating Growth Promotion Under Low-Temperature Stress by Hydroponics of Nicotiana benthamiana
(Cultivation and Compound Treatment)
A DMSO solution, which contained one of the compounds 9, 10, 15, 16, 27 to 29, 31 to 37, 40, 44, 47, 48, 52, 55, 56, 58, 61, 63, 81, 87, 89, 92, 95, 98, 100, 102, 105, 108, 109, 111, 113, and 115 of the present invention at a concentration of 1,000 ppm, was prepared. The DMSO solution of the compound of the present invention was added at a volume ratio of 1/1,000 to the Murashige-Scoog medium of a ½-fold concentration (a medium containing 2.3 g of mixed salts (manufactured by Wako Pure Chemical Industries, Ltd.), 200 mg of Myo-inositol (manufactured by Sigme-Aldrich Co. LLC.), 2 mg of niconitic acid (manufactured by Wako Pure Chemical. Industries, Ltd.), 2 mg of pyridoxine hydrochloride (manufactured by Wako Pure Chemical Industries, Ltd.), 20 mg of thiamine hydrochloride (manufactured by Wako Pure Chemical Industries, Ltd.), 20 g of sucrose (manufactured by Wako Pure Chemical Industries, Ltd.), and 1 g of MES (manufactured by DOJINDO LABORATORIES) respectively per 1 L of water and having pH adjusted to 5.8), thereby preparing a medium containing the compound of the present invention at a concentration of 1 ppm.
Seeds of Nicotiana benthamiana were seeded in the 5 μL of the medium and cultured overnight at 22° C. Thereafter, 45 μL of the medium containing the compound of the present invention at a concentration of 1 ppm was added thereto, and the seeds are cultured for 7 days at 22° C. under the conditions of an illuminance of 4,000 lux, and a day length of 16 hours, and the seedlings raised from the Nicotiana benthamiana were treated with the compound. Moreover, instead of the above medium a test plot, which was obtained by performing the same treatment by using a medium prepared by adding DMSO to the Murashige⋅Scoog medium of ½-fold concentration at a volume ratio of 1/1,000, was used as a control plot not treated with the compound.
(Low-Temperature Stress Treatment)
The seedlings of the Nicotiana benthamiana treated with the compound were subjected to low-temperature treatment by being cultured for 7 days at 1.5±1.0° C., under the conditions of an illuminance of 2,000 lux, and a day length of 16 hours.
The seedlings of the Nicotiana benthamiana having undergone the low-temperature stress treatment were cultured for 3 days at 22° C. under the conditions of an illuminance of 4,000 lux, and a day length of 16 hours. Thereafter, the area of green leaf was quantified by Scanalyzer HTS (manufactured by LemnaTec GmbH). Moreover, the value of the control plot not treated with the compound that had not yet been subjected to the low-temperature stress treatment was measured in the same manner. A value of a relative leaf area was calculated based on the following equation (1), and if the relative value of leaf area was 5 or greater, the compound was evaluated to have a growth promotion effect. As a result of the evaluation, it was confirmed that when the plant was treated with one of the compounds 9, 10, 15, 16, 27 to 29, 31 to 37, 40, 44, 47, 48, 52, 55, 56, 58, 61, 63, 81, 87, 89, 92, 95, 98, 100, 102, 105, 108, 109, 111, 113, and 115 of the present invention at 1 ppm, the value of a relative leaf area was 5 or greater, compared to the area of green leaf of the control plot not treated with compound. Accordingly, it was confirmed that the treatment using the compound of the present invention improve a growth promotion effect. Relative leaf area=100*(a green area of a plot treated with the compound of the present invention minus(−) a green area of a plot not treated with the compound of the present invention)/(a green area of a control plot not treated with the compound of the present invention that had not yet been subjected to low-temperature stress treatment minus(−) a green area of a control plot not treated with the compound of the present invention) Equation (1): […]

| Structure (SMILES) | relative leaf area at 1 ppm [%] |
| --- | --- |
| O=C(O)c1cc2c(Br)cccc2s1 [Present compound 10, 4-bromobenzo[b]thiophene-2-carboxylic acid] | ≥ 5 |
| O=C(O)c1cc2cc(I)ccc2s1 [Present compound 15, 5-iodobenzo[b]thiophene-2-carboxylic acid] | ≥ 5 |
| N#Cc1ccc2sc(C(=O)O)cc2c1 [Present compound 16, 5-cyanobenzo[b]thiophene-2-carboxylic acid] | ≥ 5 |
| Cc1cccc(-c2cccc3cc(C(=O)O)sc23)c1 [Present compound 40, 7-(3-methylphenyl)benzo[b]thiophene-2-carboxylic acid] | ≥ 5 |
| O=C(O)c1cc2cc(-c3ccccn3)ccc2s1 [Present compound 44, 5-(2-pyridyl)benzo[b]thiophene-2-carboxylic acid] | ≥ 5 |
| O=C(O)c1cc2ccc(-c3ccc(C(F)(F)F)nc3)cc2s1 [Present compound 47, 6-(6-trifluoromethyl-3-pyridyl) benzo[b]thiophene-2-caboxylic acid] | ≥ 5 |
| O=C(O)c1cc2cc(-c3ncccn3)ccc2s1 [Present compound 48, 5-(2-pyrimidinyl)benzo[b]thiophene-2-carboxylic acid] | ≥ 5 |
| O=C(O)c1cc2c(C(=O)O)cccc2s1 [Present compound 52, benzo[b]thiophene-2,4-dicarboxylic acid] | ≥ 5 |
| CC(=O)c1ccc2sc(C(=O)O)cc2c1 [Present compound 56, 5-acetylbenzo[b]thiophene-2-carboxylic acid] | ≥ 5 |
| O=C(O)c1cc2cc(C(=O)C(F)(F)F)ccc2s1 [Present compound 58, 5-(trifluoroacetyl)benzo[b]thiophene-2-carboxylic acid] | ≥ 5 |
| Nc1ccc2sc(C(=O)O)cc2c1 [Present compound 61, 5-aminobenzo[b]thiophene-2-carboxylic acid] | ≥ 5 |
| Nc1c(C(=O)O)sc2ccccc12 [Present compound 63, 3-amino-benzo[b]thiophene-2-carboxylic acid] | ≥ 5 |
| COc1cccc2sc(C(=O)O)cc12 [Present compound 81, 4-methoxybenzo[b]thiophene-2-carboxylic acid] | ≥ 5 |
| CC(C)Oc1c(C(=O)O)sc2ccccc12 [Present compound 87, 3-isopropoxybenzo[b]thiophene-2-carboxylic acid] | ≥ 5 |
| O=C(O)c1cc2cc(OC(F)(F)F)ccc2s1 [Present compound 89, 5-trifluoromethoxybenzo[b]thiophene-2-carboxylic acid] | ≥ 5 |
| COc1cccc(COc2ccc3cc(C(=O)O)sc3c2)c1 [Present compound 92, 6-(3-methoxybenzyloxy)benzo[b]thiophene-2-carboxylic acid] | ≥ 5 |
| O=C(O)c1cc2cccc(Oc3ccc(C(F)(F)F)cc3)c2s1 [Present compound 95, 7-(4-trifluoromethylphenoxy)benzo[b]thiophene-2-carboxylic acid] | ≥ 5 |
| O=C(O)c1cc2cc(SC(F)(F)F)ccc2s1 [Present compound 98, 5-(trifluoromethylthio)benzo[b]thiophene-2-carboxylic acid] | ≥ 5 |
| O=C(O)c1cc2cc(S(=O)(=O)C(F)(F)F)ccc2s1 [Present compound 100, 5-(trifluoromethylsulfonyl)benzo[b]thiophene-2-carboxylic acid] | ≥ 5 |
| O=C(O)c1cc2c(Cl)c(Cl)ccc2s1 [Present compound 102, 4,5-dichlorobenzo[b]thiophene-2-carboxylic acid] | ≥ 5 |
| O=C(O)c1sc2ccc(C(F)(F)F)cc2c1Cl [Present compound 105, 3-chloro-5-trifluoromethylbenzo[b]thiophene-2-carboxylic acid] | ≥ 5 |
| Nc1c(C(=O)O)sc2ccc(C(F)(F)F)cc12 [Present compound 108, 3-amino-5-trifluoromethylbenzo[b]thiophene-2-carboxylic acid] | ≥ 5 |
| CNc1c(C(=O)O)sc2ccc(C(F)(F)F)cc12 [Present compound 109, 3-(N-methylamino)-5-trifluoromethylbenzo[b]thiophene-2-carboxylic acid] | ≥ 5 |
| O=C(O)c1sc2ccc(C(F)(F)F)cc2c1O [Present compound 111, 3-hydroxy-5-trifluoromethylbenzo[b]thiophene-2-carboxylic acid] | ≥ 5 |
| CCOc1c(C(=O)O)sc2ccc(C(F)(F)F)cc12 [Present compound 113, 3-ethoxy-5-trifluoromethylbenzo[b]thiophene-2-carboxylic acid] | ≥ 5 |
| O=C(O)c1sc2ccc(C(F)(F)F)cc2c1OCc1ccccc1 [Present compound 115, 3-benzyloxy-5-trifluoromethylbenzo[b]thiophene-2-carboxylic acid] | ≥ 5 |

— US9955689B2, “Method for promoting plant growth” (SUMITOMO CHEMICAL COMPANY, LIMITED, priority 2012, dated 2018)
